Experimental data published in US20230365589A1, “NOVEL AMINE DERIVATIVES” (Sumitomo Pharma Co., Ltd., priority 2020, published 2023).
Where two headings read alike, the source gives them in different places.

Experiments:
Format in all cases: biochemical
DYRK3 = molecular target: T1, DYRK3 (Homo sapiens, UniProt O43781); assay: Inhibition test on activity of DYRK family, mobility shift assay (MSA): DYRK3
T1 construct: purchased Carna Biosciences, Inc. 04-133
T1 sequence (O43781 1-568 isoform O43781-2): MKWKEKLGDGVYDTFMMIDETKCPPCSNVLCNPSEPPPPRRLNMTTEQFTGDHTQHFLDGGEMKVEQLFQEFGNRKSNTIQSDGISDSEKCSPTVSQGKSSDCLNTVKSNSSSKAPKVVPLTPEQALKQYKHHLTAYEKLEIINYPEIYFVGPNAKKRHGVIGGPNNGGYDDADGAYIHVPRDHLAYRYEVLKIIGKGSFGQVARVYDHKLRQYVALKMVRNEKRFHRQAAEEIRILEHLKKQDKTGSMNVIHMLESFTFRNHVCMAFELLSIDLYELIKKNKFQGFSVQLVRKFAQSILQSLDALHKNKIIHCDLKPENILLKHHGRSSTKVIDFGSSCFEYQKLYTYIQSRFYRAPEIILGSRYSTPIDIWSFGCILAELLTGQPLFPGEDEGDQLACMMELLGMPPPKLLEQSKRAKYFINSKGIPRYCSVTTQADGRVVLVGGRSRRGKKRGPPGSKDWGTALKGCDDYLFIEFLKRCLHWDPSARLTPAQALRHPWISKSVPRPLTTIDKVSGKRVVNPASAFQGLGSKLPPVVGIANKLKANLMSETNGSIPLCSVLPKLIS
Protocol: (§1) [Inhibition Test on Activity of DYRK Family (DYRK1A, DYRK1B, DYRK2, and DYRK3)]
(§2) The kinase activity was measured by mobility shift assay (MSA) method using QuickScout Screening Assist™ MSA (commercially available kit manufactured by Carna Biosciences, Inc.). The substrate of the kinase reaction used was an FITC-labeled DYRKtide peptide included in the kit. An assay buffer [20 mM HEPES, 0.01% Triton X-100™, 2 mM dithiothreitol, pH 7.5]was used to create a substrate mixture solution with a substrate (4 μM), MgCl2(20 mM), and ATP (DYRK1A: 100 μM; DYRK1B: 200 μM; DYRK2: 40 μM; and DYRK3: 20 μM). In addition, kinases (DYRK1A: manufactured by Carna Biosciences, Inc., Cat. No. 04-130; DYRK1B: manufactured by Carna Biosciences, Inc., Cat. No. 04-131; DYRK2; manufactured by Carna Biosciences, Inc., Cat. No. 04-132; and DYRK3; manufactured by Carna Biosciences, Inc., Cat. No. 04-133) were diluted with the assay buffer to prepare enzyme solutions (DYRK1A: 0.2 ng/μL; DYRK1B: 0.08 ng/μL; DYRK2: 0.04 ng/μL; and DYRK3: 0.25 ng/μL). The 10 mM solution of the test compound in DMSO was further diluted with DMSO to 10 levels of the concentration (0.00003 mM, 0.0001 mM, 0.0003 mM, 0.001 mM, 0.003 mM, 0.01 mM, 0.03 mM, 0.1 mM, 0.3 mM, and 1 mM), each of which was subjected to 25-fold dilution with the assay buffer to obtain a drug solution (4% DMSO solution). 5 μL of the drug solution or a control solution (4% DMSO-assay buffer), 5 μL of the substrate mixture solution, and 10 μL of the enzyme solution were mixed in the wells of a polypropylene 384-well plate and allowed to react at room temperature for 1 hour, and then the reaction was quenched by adding 60 μL of the termination buffer included in the kit. Subsequently, the quantities of the substrates (S) and the phosphorylated substrate (P) in the reaction solution were measured using LabChip EZ Reader II system (manufactured by Caliper Life Sciences) according to the protocol of the assay kit.
(§3) The heights of the peaks of the “substrate” and the “phosphorylated substrate” were expressed as S and P, respectively, and a blank containing the assay buffer instead of the enzyme solution was also measured.
(§4) The inhibition rate (%) of the test compound was calculated according to the following equation:
(§5) Inhibition rate (%)=(1−(C−A)/(B−A))×100 • wherein, A, B, and C represent P/(P+S) of the blank well, P/(P+S) of the control solution well, and P/(P+S) of the compound-containing well, respectively.
(§6) The IC50 value was calculated via a regression analysis of the inhibition rate and the test compound concentration (logarithmic value).
(§7) The inhibiting activities of representative compounds of the present invention are shown against DYRK1A, DYRK1B, DYRK2, and DYRK3 in Tables.

DYRK1A = molecular target: T2, DYRK1A (Homo sapiens, UniProt Q13627); assay: Inhibition test on activity of DYRK family, mobility shift assay (MSA): DYRK1A
T2 construct: purchased Carna Biosciences, Inc. 04-130
Protocol: as §1, §2, §3, §4, §5, §6

DYRK2 = molecular target: T3, DYRK2 (Homo sapiens, UniProt Q92630); assay: Inhibition test on activity of DYRK family, mobility shift assay (MSA): DYRK2
T3 construct: purchased Carna Biosciences, Inc. 04-132
T3 sequence (Q92630 74-601 limits assumed): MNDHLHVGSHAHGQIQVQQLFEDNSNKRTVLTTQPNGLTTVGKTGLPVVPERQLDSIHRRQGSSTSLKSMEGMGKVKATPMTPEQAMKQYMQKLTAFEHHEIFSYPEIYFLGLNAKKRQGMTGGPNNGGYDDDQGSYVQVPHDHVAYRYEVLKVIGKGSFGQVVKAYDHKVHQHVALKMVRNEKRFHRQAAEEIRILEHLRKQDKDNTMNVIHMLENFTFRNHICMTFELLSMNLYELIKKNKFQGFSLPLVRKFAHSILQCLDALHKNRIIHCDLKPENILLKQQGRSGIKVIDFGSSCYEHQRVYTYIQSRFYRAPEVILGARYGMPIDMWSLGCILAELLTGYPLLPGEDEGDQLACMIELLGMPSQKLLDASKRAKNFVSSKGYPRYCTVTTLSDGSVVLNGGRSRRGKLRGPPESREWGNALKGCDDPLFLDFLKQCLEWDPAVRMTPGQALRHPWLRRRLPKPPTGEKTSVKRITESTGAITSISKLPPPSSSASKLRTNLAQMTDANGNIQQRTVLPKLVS
Protocol: as §1, §2, §3, §4, §5, §6, §7

[1] = read-out: Inhibitory activity DYRK 3
[2] = read-out: Inhibitory activity DYRK 1A
[3] = read-out: Inhibitory activity DYRK 2
[4] = MSA, FITC-labeled DYRKtide peptide, ATP 20 μM, read-out: Inhibitory activity DYRK 3 (IC50 class)
[5] = MSA, FITC-labeled DYRKtide peptide, ATP 100 μM, read-out: Inhibitory activity DYRK 1A (IC50 class)
[6] = MSA, FITC-labeled DYRKtide peptide, ATP 40 μM, read-out: Inhibitory activity DYRK 2 (IC50 class)

IC50 (DYRK3; [1]) [nM] | IC50 (DYRK1A; [2]) [nM] | IC50 (DYRK2; [3]) [nM] | IC50 (DYRK3; [4]) [nM] | IC50 (DYRK1A; [5]) [nM] | IC50 (DYRK2; [6]) [nM] | SMILES
100 to 1000 | 10 to 100 | ≥ 1000 | – | – | – | N#CCN1C[C@@H]2NC(=O)N(c3nc4c5c(ccc4s3)OCC5)[C@@H]2C1 (racemic) [Example 103, rac-[(3aR,6aS)-1-(7,8-dihydrofuro[3,2-e][1,3]benzothiazol-2-yl)-2-oxohexahydropyrrolo[3,4-d]imidazol-5(1H)-yl]acetonitrile]
≥ 1000 | 100 to 1000 | ≥ 1000 | – | – | – | CO[C@H]1C[C@H]2NC(=O)N(c3nc4c5c(ccc4s3)OCC5)[C@H]2CO1 [Example 130]
– | – | – | 10 to 100 | 10 to 100 | 100 to 1000 | O=C1N[C@H]2CCNCC[C@H]2N1c1nc2c3c(ccc2s1)OCC3 [Example 45]
– | – | – | ≥ 1000 | < 10 | 100 to 1000 | O=C1N[C@H]2CCCN(C3COC3)C[C@H]2N1c1nc2c3c(ccc2s1)OCC3 (racemic) [Example 73, rac-(3aR,8aS)-3-(7,8-dihydrofuro[3,2-e][1,3]benzothiazol-2-yl)-5-(oxetan-3-yl)octahydroimidazo[4,5-c]azepin-2(1H)-one]
100 to 1000 | < 10 | 100 to 1000 | – | – | – | N#C[C@H]1C[C@@H]2[C@H](CO1)NC(=O)N2c1nc2c3c(ccc2s1)OCC3 [Example 127, (3aR,6R,7aR)-1-(7,8-dihydrofuro[3,2-e][1,3]benzothiazol-2-yl)-2-oxooctahydropyrano[3,4-d]imidazole-6-carbonitrile]
– | – | – | 100 to 1000 | < 10 | ≥ 1000 | O=C1N[C@H]2CO[C@@H](CO)C[C@H]2N1c1nc2c3c(ccc2s1)OCCO3 [Example 146, (3aR,6R, 7aR)-1-(7,8-dihydro[1,4]dioxino[2,3-e][1,3]benzothiazol-2-yl)-6-(hydroxymethyl)hexahydropyrano[3,4-d]imidazol-2(3H)-one]
– | – | – | 100 to 1000 | < 10 | 100 to 1000 | N#C[C@H]1C[C@@H]2[C@H](CO1)NC(=O)N2c1nc2c3c(ccc2s1)OCCO3 [Example 133, (3aR,6R,7aR)-1-(7,8-dihydro[1,4]dioxino[2,3-e][1,3]benzothiazol-2-yl)-2-oxooctahydropyrano[3,4-d]imidazole-6-carbonitrile]
– | – | – | ≥ 1000 | 10 to 100 | ≥ 1000 | CC(C)(C)OC(=O)N1CC(N2CC[C@@H]3NC(=O)N(c4nc5c6c(ccc5s4)OCC6)[C@@H]3C2)C1 [Example 82]
100 to 1000 | < 10 | 100 to 1000 | – | – | – | CC1(C)C[C@@H]2[C@H](CO1)NC(=O)N2c1nc2c3c(ccc2s1)OCC3 [Example 124, (3aR,7aR)-1-(7,8-dihydrofuro[3,2-e][1,3]benzothiazol-2-yl)-6,6-dimethylhexahydropyrano[3,4-d]imidazol-2(3H)-one]
– | – | – | 100 to 1000 | 10 to 100 | 100 to 1000 | O=C1N[C@H]2CNCCC[C@H]2N1c1nc2c3c(ccc2s1)OCO3 [Example 54]
– | – | – | 100 to 1000 | 100 to 1000 | ≥ 1000 | O=C1N[C@H]2CCCNC[C@H]2N1c1nc2c3c(ccc2s1)OCC3 [Example 4]
– | – | – | ≥ 1000 | 100 to 1000 | ≥ 1000 | O=C1N[C@@H]2C[C@H](CO)OC[C@@H]2N1c1nc2c3c(ccc2s1)OCC3 [Example 145]
– | – | – | ≥ 1000 | 100 to 1000 | ≥ 1000 | O=C1N[C@H]2CN(C3CC3)CC[C@H]2N1c1nc2c3c(ccc2s1)OCCO3 [Example 88]
– | – | – | 100 to 1000 | 10 to 100 | 100 to 1000 | O=C1N[C@H]2CNCC[C@H]2N1c1nc2c3c(ccc2s1)OCCO3 [Example 51]
100 to 1000 | < 10 | 100 to 1000 | – | – | – | N#C[C@H]1C[C@@H]2[C@H](CO1)NC(=O)N2c1nc2c3c(ccc2s1)OCO3 [Example 131, (3aR,6R,7aR)-1-(2H-[1,3]dioxolo[4,5-e][1,3]benzothiazol-7-yl)-2-oxooctahydropyrano[3,4-d]imidazole-6-carbonitrile]
– | – | – | 100 to 1000 | 10 to 100 | ≥ 1000 | O=C1N[C@H]2CCNC[C@H]2N1c1nc2c3c(ccc2s1)OCC3 (relative stereo) [Example 1, cis-3-(7,8-Dihydrofuro[3,2-e][1,3]benzothiazol-2-yl)octahydro-2H-imidazo[4,5-c]pyridin-2-one]
– | – | – | 100 to 1000 | – | ≥ 1000 | CN1CC[C@H]2NC(=O)N(c3nc4c5c(ccc4s3)OCC5)[C@@H]2C12CC2 [Example 70]
– | – | – | ≥ 1000 | 10 to 100 | ≥ 1000 | O=C1NC2CCNCC2N1c1nc2c3c(ccc2s1)OCO3 (centres unmarked) [Example 30]
– | – | – | 100 to 1000 | – | 100 to 1000 | O=C1N[C@H]2COCC[C@H]2N1c1nc2c3c(ccc2s1)OCCO3 [Example 37, (3aR,7aR)-1-(7,8-dihydro[1,4]dioxino[2,3-e][1,3]benzothiazol-2-yl)hexahydropyrano[3,4-d]imidazol-2(3H)-one]
– | – | – | ≥ 1000 | – | ≥ 1000 | O=C1N[C@H]2CCN(C3COC3)C[C@H]2N1c1nc2c3c(ccc2s1)OCC3 (racemic) [Example 71, rac-(3aR,7aS)-3-(7,8-dihydrofuro[3,2-e][1,3]benzothiazol-2-yl)-5-(oxetan-3-yl)octahydro-2H-imidazo[4,5-c]pyridin-2-one]
– | – | – | 100 to 1000 | – | 100 to 1000 | O=C1N[C@H]2CNCC[C@H]2N1c1nc2c3c(ccc2s1)OCO3 [Example 52]
– | – | – | ≥ 1000 | – | ≥ 1000 | CN1CC[C@@H]2NC(=O)N(c3nc4c5c(ccc4s3)OCC5)[C@@H]2C12CC2 [Example 69]
– | 100 to 1000 | ≥ 1000 | – | – | – | C#CCN1CC[C@H]2NC(=O)N(c3nc4c5c(ccc4s3)OCC5)[C@H]2C1 (single isomer, unassigned) [Example 113]
– | – | – | 100 to 1000 | – | 100 to 1000 | O=C1N[C@H]2CCN(C3COC3)C[C@@H]2N1c1nc2c3c(ccc2s1)OCC3 [Example 19, (3aS,7aS)-3-(7,8-dihydrofuro[3,2-e][1,3]benzothiazol-2-yl)-5-(oxetan-3-yl)octahydro-2H-imidazo[4,5-c]pyridin-2-one]
